Test results published in ChEMBL document CHEMBL6087471, “A Collection of Novel Antitumor Agents That Regulate Lipid Metabolism in the Tumor Microenvironment” (J Med Chem, 2025).

How the values were obtained:
[1] = biological target: T1, Diacylglycerol O-acyltransferase 2 (Homo sapiens, UniProt Q96PD7); assay: Inhibition of DGAT2 (unknown origin)
T1 sequence (Q96PD7 whole entry): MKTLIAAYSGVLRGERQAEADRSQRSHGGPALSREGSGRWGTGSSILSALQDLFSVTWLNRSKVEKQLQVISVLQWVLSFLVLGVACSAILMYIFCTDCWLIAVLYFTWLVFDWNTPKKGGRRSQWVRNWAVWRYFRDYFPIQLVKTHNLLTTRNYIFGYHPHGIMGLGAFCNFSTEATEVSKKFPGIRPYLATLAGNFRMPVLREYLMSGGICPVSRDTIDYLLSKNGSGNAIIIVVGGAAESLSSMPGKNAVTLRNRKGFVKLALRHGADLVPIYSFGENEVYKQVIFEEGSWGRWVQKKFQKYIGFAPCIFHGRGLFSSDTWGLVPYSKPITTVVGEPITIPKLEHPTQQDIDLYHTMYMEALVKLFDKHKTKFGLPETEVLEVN

Bile acid receptor = biological target: T2, Bile acid receptor (Homo sapiens, UniProt Q96RI1); assay: Agonist activity at FXR (unknown origin)
T2 sequence (Q96RI1 whole entry): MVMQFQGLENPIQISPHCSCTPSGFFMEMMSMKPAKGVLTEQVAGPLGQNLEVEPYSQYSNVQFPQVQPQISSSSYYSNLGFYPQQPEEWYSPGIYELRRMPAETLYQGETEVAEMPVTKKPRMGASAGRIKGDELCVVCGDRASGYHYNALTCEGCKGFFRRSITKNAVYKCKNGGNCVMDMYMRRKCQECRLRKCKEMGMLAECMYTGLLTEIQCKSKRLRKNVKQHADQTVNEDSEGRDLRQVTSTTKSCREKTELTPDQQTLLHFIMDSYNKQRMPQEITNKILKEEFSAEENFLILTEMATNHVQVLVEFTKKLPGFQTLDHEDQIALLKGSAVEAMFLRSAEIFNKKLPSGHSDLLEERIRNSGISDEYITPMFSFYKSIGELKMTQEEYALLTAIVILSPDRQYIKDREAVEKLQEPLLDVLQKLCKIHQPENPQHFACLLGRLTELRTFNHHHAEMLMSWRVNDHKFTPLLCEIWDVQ

[2] = Inhibition of ACC1 (unknown origin); design: species or system Homo sapiens
[3] = Inhibition of CPT1 (unknown origin); design: species or system Homo sapiens
Autotaxin = Autotaxin (Homo sapiens, UniProt Q13822)
Description: Inhibition of ATX (unknown origin)

MCF7 = assay: Antiproliferative activity against human MCF7 cells assessed as reduction in cell growth; format: functional, cell-based
Platelet glycoprotein 4 = Platelet glycoprotein 4 (Homo sapiens, UniProt P16671); assay: Inhibition of N-terminal Flag-tagged human CD36
[4] = Inhibition of rat CPT2
PC-3 = assay: Antiproliferative activity against human PC-3 cells; format: functional, cell-based
SK-OV-3 = assay: Antiproliferative activity against human SK-OV-3 cells; format: functional, cell-based
A549 = assay: Antiproliferative activity against human A549 cells; format: functional, cell-based
[5] = Binding affinity to rat liver mitochondria CPT1 assessed as inhibition constant measured for 6 mins by Liquid scintillation counting method

Chain of Platelet glycoprotein 4 (P16671 whole entry): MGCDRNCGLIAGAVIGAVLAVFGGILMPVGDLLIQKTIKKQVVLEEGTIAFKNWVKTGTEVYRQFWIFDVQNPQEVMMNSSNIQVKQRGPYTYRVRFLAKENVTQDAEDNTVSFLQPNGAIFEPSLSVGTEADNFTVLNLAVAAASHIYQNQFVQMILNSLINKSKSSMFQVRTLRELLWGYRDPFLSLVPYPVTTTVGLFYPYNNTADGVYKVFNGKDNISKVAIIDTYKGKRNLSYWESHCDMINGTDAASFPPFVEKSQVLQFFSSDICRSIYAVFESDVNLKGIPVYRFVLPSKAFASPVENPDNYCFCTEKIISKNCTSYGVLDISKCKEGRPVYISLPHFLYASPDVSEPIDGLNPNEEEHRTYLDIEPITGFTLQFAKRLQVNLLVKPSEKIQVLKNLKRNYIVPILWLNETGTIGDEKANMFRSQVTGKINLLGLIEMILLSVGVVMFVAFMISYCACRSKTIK

CC(C)(C)OC(=O)NC1(C(=O)N[C@@H]2CC(=O)c3ccccc3N(Cc3cc(C(F)(F)F)cc(C(F)(F)F)c3)C2=O)CC1
IC50 [1]: > 75.5 nM

Cc1cc(-c2nc3ccc(C(=O)O)cc3n2C)ccc1OCc1c(-c2c(Cl)cccc2Cl)noc1C(C)C
EC50 (Bile acid receptor): 13.4 nM

CC(=O)N1CCC(C(=O)N2CCC(N3CCN(C(=O)c4cc(-c5ccc(C)cc5)nc(-c5ccc(C)cc5)c4)CC3)CC2)CC1
IC50 [2]: 76 nM

COc1ccc(CN2CCN(CCCSc3cc(C(C)(C)C)c(O)c(C(C)(C)C)c3)CC2)c(OC)c1OC
IC50 [3]: 50800 nM

C[C@H](CCC(=O)O)[C@H]1CC[C@H]2[C@@H]3[C@@H](O)C[C@@H]4C[C@H](O)CC[C@]4(C)[C@H]3CC[C@]12C [URSODIOL]
IC50 (Autotaxin): 2800 nM

C=C1C(=O)O[C@H](CCCCCCCC)[C@H]1C(=O)O
IC50 [2]: 460 nM

CCCCCCCCCCC[C@@H](C[C@@H]1OC(=O)[C@H]1CCCCCC)OC(=O)[C@H](CC(C)C)NC=O [ORLISTAT]
IC50 (MCF7): 250 nM

CCc1nc2c(C)cc(-c3ccc(CN(CCO)CCO)cc3)cn2c1NC(=O)NCc1ccc(Cl)cc1
IC50 (Autotaxin): 3.98 nM

COc1ccc(CN2CCNCC2)c(OC)c1OC [TRIMETAZIDINE]
IC50 [3]: 759000 nM

CCCCCCCC/C=C\CCCCCCCC(=O)ON1C(=O)CC(S(=O)(=O)O)C1=O (stereo unspecified)
IC50 (Platelet glycoprotein 4): 4000 nM

CCCCCCCCCCCCCC(=O)Nc1ccc(CP(=O)(O)O)cc1
IC50 (Autotaxin): 5.6 nM

CCCCCCCCCCCCCCNC(=O)N[C@H](CC(=O)[O-])C[N+](C)(C)C
IC50 [4]: 240 nM

O=C1Nc2ccccc2-c2cc(c(F)cc2F)NS(=O)(=O)c2cc1cc(Cl)c2O
IC50 [3]: 69.7 nM

CCOC(=O)c1sc2c(c1C)c(=O)n(CCO)c(=O)n2CCc1ccccc1
IC50 [2]: 3.9 nM

O=C(NC1(C(=O)N[C@@H]2CC(=O)c3ccccc3N(Cc3cc(C(F)(F)F)cc(C(F)(F)F)c3)C2=O)CC1)c1ccc(F)cc1
IC50 [1]: > 75.5 nM

COc1ccc(-c2ccccc2)cc1NS(=O)(=O)c1cc(Cl)cc(Cl)c1O
IC50 [3]: 130 nM

CC(C)(CCCCCC(O)CCCCCC(C)(C)C(=O)O)C(=O)O [BEMPEDOIC ACID]
IC50 (PC-3): 26000 nM | IC50 (SK-OV-3): 53000 nM | IC50 (A549): 24000 nM

COc1ccccc1[C@H](Cn1c(=O)n(C(C)(C)C(=O)O)c(=O)c2c(C)c(-c3ncco3)sc21)OC1CCOCC1 [FIRSOCOSTAT]
IC50 [2]: 2.1 nM

COc1cc(C(=O)N2CCC3(CC2)CC(=O)c2cc(-c4cncc(C(=O)O)c4)ccc2O3)cc2c1c(C)cn2C1CC1
IC50 [2]: 3 nM

O=C(c1c2ccccc2cc2ccccc12)N1CCN(C2CCN(C(=O)N3CCOCC3)CC2)CC1
IC50 [2]: 239 nM

O=C(c1c2ccccc2cc2ccccc12)N1CCC(N2CCC[C@@H](C(=O)N3CCOCC3)C2)CC1
IC50 [2]: 116 nM

COCc1nc(C(F)(F)F)[nH]c1-c1cc(C(=O)N2CC(c3ccc(C#N)cc3)C2)c(C)cc1C
IC50 [2]: 40 nM

COC(=O)c1cc(Cl)c(O)c(S(=O)(=O)Nc2cc(-c3ccccc3)c(F)cc2F)c1
IC50 [3]: 44 nM

Cc1cc(C)c(-c2[nH]nc(C)c2C)cc1C(=O)N1CC(c2ccc(C#N)cc2)C1
IC50 [2]: 20 nM

CCCCCCCCCCCCCCC[C@@]1(O)C[N+](C)(C)C[C@@H](CC(=O)[O-])O1
Ki [5]: 4200 nM

CC(C)N(C(=O)n1nnn(-c2c(F)cccc2F)c1=O)c1ccc(C(=O)O)cc1Oc1ccccc1
IC50 (MCF7): 19 nM

CCCCCCOc1cccc(OCCCCNC(=O)N[C@@H](CC(=O)O)CN(C)C)c1
IC50 [3]: 44 nM

Cc1nc(-c2cc(C(=O)N3CCC(c4ccc(C#N)cc4)CC3)c(C)cc2C2CCC2)n[nH]1
IC50 [2]: 40 nM

Cc1sc2ncnc(NC3CCN(Cc4ccccc4)C3)c2c1C (stereo unspecified)
IC50 (MCF7): 0.3 nM
